PubChem BioAssay AID1845200 (Molecular Pharmacology Branch, DTP, NCI, 2023)
“And” between values parts separate entries of the source, which are not always exact repeats. Identical values can stand only once. The source made the active and inactive calls. Rule for the calls: active = viability on the fitted dose curve at most 10% of control; inactive = the rest.

Test system: ASPS-1 complex tumor spheroids, viability
Assay: Anticancer human tumor ASPS-1 cell line growth inhibition;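 note: spheroids exposed to agents for 7 days after 3 days of growth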;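 for viability, T/C: 100% = DMSO vehicle treated spheroids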
Conditions: for viability, T/C: stronger effect = lower value
In short: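 Single agents and combinations were tested on spheroids built from tumor cells plus HUVEC and hMSC, at half-log dilutions starting at or near clinical Cmax, else 10 microM; final DMSO 0.25% (v/v).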

Structure (SMILES): Cn1ncnc1[C@H]1c2n[nH]c(=O)c3cc(F)cc(c23)N[C@@H]1c1ccc(F)cc1 + Cn1nnc2c(C(N)=O)ncn2c1=O
- IC50 (curve of first compound, second compound 1 µM): > 3 µM
- IC50 (curve of first compound, second compound 3.16 µM): > 3 µM
- IC50 (curve of first compound, second compound 10 µM): > 3 µM
- IC50 (curve of first compound, second compound 31.6 µM): > 3 µM
- IC50 (curve of first compound, second compound 100 µM): > 3 µM
- viability, T/C (second compound 1 µM, first compound 0.00949 µM): 98.8%
- viability, T/C (second compound 1 µM, first compound 0.03 µM): 98.9%
- viability, T/C (second compound 1 µM, first compound 0.0949 µM): 97.5%
- viability, T/C (second compound 1 µM, first compound 0.3 µM): 103%
- viability, T/C (second compound 1 µM, first compound 0.949 µM): 96.3%
- viability, T/C (second compound 1 µM, first compound 3 µM): 74.1%
- viability, T/C (second compound 3.16 µM, first compound 0.00949 µM): 99.7%
- viability, T/C (second compound 3.16 µM, first compound 0.03 µM): 95%
- viability, T/C (second compound 3.16 µM, first compound 0.0949 µM): 96.2%
- viability, T/C (second compound 3.16 µM, first compound 0.3 µM): 95.8%
- viability, T/C (second compound 3.16 µM, first compound 0.949 µM): 91.1%
- viability, T/C (second compound 3.16 µM, first compound 3 µM): 67.8%
- viability, T/C (second compound 10 µM, first compound 0.00949 µM): 86.2%
- viability, T/C (second compound 10 µM, first compound 0.03 µM): 89.6%
- viability, T/C (second compound 10 µM, first compound 0.0949 µM): 80.1%
- viability, T/C (second compound 10 µM, first compound 0.3 µM): 83.4%
- viability, T/C (second compound 10 µM, first compound 0.949 µM): 71.7%
- viability, T/C (second compound 10 µM, first compound 3 µM): 61.1%
- viability, T/C (second compound 31.6 µM, first compound 0.00949 µM): 78.5%
- viability, T/C (second compound 31.6 µM, first compound 0.03 µM): 76.3%
- viability, T/C (second compound 31.6 µM, first compound 0.0949 µM): 76%
- viability, T/C (second compound 31.6 µM, first compound 0.3 µM): 67%
- viability, T/C (second compound 31.6 µM, first compound 0.949 µM): 56.5%
- viability, T/C (second compound 31.6 µM, first compound 3 µM): 53.2%
- viability, T/C (second compound 100 µM, first compound 0.00949 µM): 56.4%
- viability, T/C (second compound 100 µM, first compound 0.03 µM): 50.8%
- viability, T/C (second compound 100 µM, first compound 0.0949 µM): 52.2%
- viability, T/C (second compound 100 µM, first compound 0.3 µM): 58.7%
- viability, T/C (second compound 100 µM, first compound 0.949 µM): 54.5%
- viability, T/C (second compound 100 µM, first compound 3 µM): 50.8%

Structure (SMILES): COc1ccc([C@@H](O)c2cc(-c3ncnc4cc(N5CCOCC5)ccc34)c(F)cc2Cl)nn1
- viability, T/C (compound 0.0316 µM): 108% and 103% (2×)
- viability, T/C (compound 0.1 µM): 95.8% and 109% and 111%
- viability, T/C (compound 0.316 µM): 103% and 102% and 94.3%
- outcome (compound 1 µM): inactive
- viability, T/C (compound 1 µM): 90.4%
- viability, T/C (compound 3.16 µM): 77.3% and 89.6% and 84.7%
- viability, T/C (compound 10 µM): 49.6% and 58.1% and 50.4%
- IC50 (curve of compound): 9.89 µM and > 10 µM

Structure (SMILES): O=C(c1cc(Cc2n[nH]c(=O)c3ccccc23)ccc1F)N1CCN(C(=O)C2CC2)CC1 + CC[C@@]1(O)C(=O)OCc2c1cc1n(c2=O)Cc2cc3c(CN(C)C)c(O)ccc3nc2-1
- IC50 (curve of first compound, second compound 0.003 µM): > 30 µM
- IC50 (curve of first compound, second compound 0.00949 µM): > 30 µM
- IC50 (curve of first compound, second compound 0.03 µM): > 30 µM
- IC50 (curve of first compound, second compound 0.0949 µM): < 0.0949 µM
- IC50 (curve of first compound, second compound 0.3 µM): < 0.0949 µM
- viability, T/C (second compound 0.003 µM, first compound 0.0949 µM): 114%
- viability, T/C (second compound 0.003 µM, first compound 0.3 µM): 107%
- viability, T/C (second compound 0.003 µM, first compound 0.949 µM): 101%
- viability, T/C (second compound 0.003 µM, first compound 3 µM): 105%
- viability, T/C (second compound 0.003 µM, first compound 9.49 µM): 104%
- viability, T/C (second compound 0.003 µM, first compound 30 µM): 97.3%
- viability, T/C (second compound 0.00949 µM, first compound 0.0949 µM): 102%
- viability, T/C (second compound 0.00949 µM, first compound 0.3 µM): 106%
- viability, T/C (second compound 0.00949 µM, first compound 0.949 µM): 103%
- viability, T/C (second compound 0.00949 µM, first compound 3 µM): 105%
- viability, T/C (second compound 0.00949 µM, first compound 9.49 µM): 101%
- viability, T/C (second compound 0.00949 µM, first compound 30 µM): 93.5%
- viability, T/C (second compound 0.03 µM, first compound 0.0949 µM): 84.9%
- viability, T/C (second compound 0.03 µM, first compound 0.3 µM): 88.8%
- viability, T/C (second compound 0.03 µM, first compound 0.949 µM): 90.3%
- viability, T/C (second compound 0.03 µM, first compound 3 µM): 77.4%
- viability, T/C (second compound 0.03 µM, first compound 9.49 µM): 71.4%
- viability, T/C (second compound 0.03 µM, first compound 30 µM): 66.1%
- viability, T/C (second compound 0.0949 µM, first compound 0.0949 µM): 45.8%
- viability, T/C (second compound 0.0949 µM, first compound 0.3 µM): 50%
- viability, T/C (second compound 0.0949 µM, first compound 0.949 µM): 49%
- viability, T/C (second compound 0.0949 µM, first compound 3 µM): 48.6%
- viability, T/C (second compound 0.0949 µM, first compound 9.49 µM): 40.1%
- viability, T/C (second compound 0.0949 µM, first compound 30 µM): 49.7%
- viability, T/C (second compound 0.3 µM, first compound 0.0949 µM): 49.1%
- viability, T/C (second compound 0.3 µM, first compound 0.3 µM): 45.4%
- viability, T/C (second compound 0.3 µM, first compound 0.949 µM): 43.1%
- viability, T/C (second compound 0.3 µM, first compound 3 µM): 44.2%
- viability, T/C (second compound 0.3 µM, first compound 9.49 µM): 35.6%
- viability, T/C (second compound 0.3 µM, first compound 30 µM): 42.2%
